Source: patent EP0278501A2, “Nucleotide analogs, their production and use” (Takeda Chemical Industries, Ltd., priority 1987, dated 1988)
Converted amounts (≈) assume the structure as drawn. Each block holds one molecule with its values, some of them ahead of it.

Experiments:
[1] = system: cyclic AMP phosphodiesterase originated from a cow brain; assay: Reaction with cyclic AMP phosphodiesterase; type: biochemical; conditions: enzyme originated from a cow brain
[2] = system: Herpes Simplex Virus Type 1, HF Strainn; assay: Inhibition of viral cytopathogenic effect in infected Vero cells; type: cell-based
Text: Inhibitory Effect of Antiviral Compounds against Herpes Simplex Virus Type 1, HF Strainn
Vero cells were infected with 100 TCIDso(50% tissue-culture infected doses) of viruses and cultured with various concentrations of the compounds.

[3] = Cytotoxicity in non-infected control culture (visible disruption of normal cell morphology); type: cell-based; conditions: monkey, vero cells; minimum concentration to cause a visible disruption of normal cell morphology; non-infected Vero control culture, three days; read-out: Cytotoxicity^b)
[4] = system: Vero cells; assay: as above; type: cell-based; conditions: minimum concentration to cause a visible disruption of normal cell morphology; non-infected Vero control culture, three days; 4320 min

Molecule: 2'-Deoxyaristeromycin-3',6'-cyclic phosphate [Example 1]
conversion by cyclic AMP phosphodiesterase [1]: changed to 2'-deoxyaristeromycin-mono phosphate

EC50 ([2]; Human alphaherpesvirus 1, 72 h; concentration required to reduce the viral cytopathogenic effect by 50%; Vero cells infected with 100 TCID50; observed three days after the infection; read-out: ID50^a)): 0.2 mg/L (≈ 0.579 µM)
Molecule: Nc1nc2c(ncn2[C@@H]2C[C@H](COP(=O)(O)O)[C@@H](O)C2)c(=O)[nH]1 [Carbocyclic•2'-deoxyguanosine-6'-monophosphate]
MCC at 72 h [3]: 50 µg/mL

Molecule: Carbocyclic•2'-deoxyguanosine 6'-triphosphate
ID50^a) ([2]; concentration required to reduce the viral cytopathogenic effect by 50%, Vero cells infected with 100 TCID50, observed three days after the infection, 4320 min): 0.4 mg/L
Cytotoxicity^b) [4]: 50 µg/mL
